Data: patent US9447082B2, “Optically active fluconazole analogues containing thiophenes as antifungal agents” (FDC Limited, priority 2011, dated 2016)
In brackets after ≈: the same amount, converted by molar mass.

Columns and labels:
[1] = system: C. Krusei ATCC 6258; experiment: MIC by broth dilution, C. krusei ATCC 6258; conditions: for MIC50: Pichia kudriavzevii, ATCC6258, 48 h, pH 7
[2] = system: Aspergillus niger ATCC 16404; experiment: MIC by broth dilution, A. niger ATCC 16404; conditions: for MIC50: Aspergillus niger, ATCC16404, 48 h, pH 7
[3] = system: Cryptococcus neoformans ATCC 34664; experiment: MIC by broth dilution, C. neoformans ATCC 34664; conditions: for MIC50: Cryptococcus neoformans, ATCC34664, 48 h, pH 7
[4] = system: C. glabrata ATCC 90030; experiment: MIC by broth dilution, C. glabrata ATCC 90030; conditions: for MIC50: Nakaseomyces glabratus, ATCC90030, 48 h, pH 7
[5] = system: Fusarium proliferatum ATCC 10052; experiment: MIC by broth dilution, F. proliferatum ATCC 10052; conditions: for MIC50: Fusarium proliferatum, ATCC10052, 48 h, pH 7
[6] = system: C. albicans ATCC 90028; experiment: MIC by broth dilution, C. albicans ATCC 90028; conditions: for MIC50: Candida albicans, ATCC90028, 48 h, pH 7
[7] = system: Candida albicans ATCC 24433; experiment: MIC by broth dilution, C. albicans ATCC 24433; conditions: for MIC50: Candida albicans, ATCC24433, 48 h, pH 7
[8] = system: Aspergillus fumigatus ATCC 46645; experiment: MIC by broth dilution, A. fumigatus ATCC 46645; conditions: for MIC50: Aspergillus fumigatus, ATCC46645, 48 h, pH 7
[9] = system: C. albicans ATCC 10231; experiment: MIC by broth dilution, C. albicans ATCC 10231; conditions: for MIC50: Candida albicans, ATCC10231, 48 h, pH 7
[10] = system: C. albicans ATCC 2091; experiment: MIC by broth dilution, C. albicans ATCC 2091; conditions: for MIC50: Candida albicans, ATCC2091, 48 h, pH 7
[11] = system: C. tropicalis ATCC 750; experiment: MIC by broth dilution, C. tropicalis ATCC 750; conditions: for MIC50: Candida tropicalis, ATCC750, 48 h, pH 7

| MIC50 [1] | MIC50 [2] | MIC50 [3] | MIC50 [4] | MIC50 [5] | MIC50 [6] | MIC50 [7] | MIC50 [8] | MIC50 [9] | MIC50 [10] | MIC50 [11] | SMILES | also measured |
| --- | --- | --- | --- | --- | --- | --- | --- | --- | --- | --- | --- | --- |
| 32 µg/mL (≈ 85.2 µM) | > 64 µg/mL | 2 µg/mL (≈ 5.33 µM) | 0.12 µg/mL (≈ 0.32 µM) | > 64 µg/mL | 0.25 µg/mL (≈ 0.666 µM) | 0.12 µg/mL (≈ 0.32 µM) | > 64 µg/mL | 0.25 µg/mL (≈ 0.666 µM) | 0.25 µg/mL (≈ 0.666 µM) | 2 µg/mL (≈ 5.33 µM) | Cc1cc(C#N)c(NC[C@](O)(Cn2cncn2)c2ccc(F)cc2F)s1 [Compound 1a-01, (S)-2-((2-(2,4-Difluorophenyl)-2-hydroxy-3-(1H-1,2,4-triazol-1-yl)propyl)amino)-5-methylthiophene-3-carbonitrile] | – |
| 64 µg/mL (≈ 209 µM) | > 128 µg/mL | 2 µg/mL (≈ 6.53 µM) | 4 µg/mL (≈ 13.1 µM) | > 128 µg/mL | 0.5 µg/mL (≈ 1.63 µM) | 0.5 µg/mL (≈ 1.63 µM) | > 128 µg/mL | 0.5 µg/mL (≈ 1.63 µM) | 0.5 µg/mL (≈ 1.63 µM) | 2 µg/mL (≈ 6.53 µM) | OC(Cn1cncn1)(Cn1cncn1)c1ccc(F)cc1F [FLU, Fluconazole] | – |
| 8 µg/mL (≈ 19.2 µM) | > 4 µg/mL | 1 µg/mL (≈ 2.4 µM) | 0.12 µg/mL (≈ 0.287 µM) | > 4 µg/mL | 0.12 µg/mL (≈ 0.287 µM) | 0.12 µg/mL (≈ 0.287 µM) | > 4 µg/mL | 0.12 µg/mL (≈ 0.287 µM) | 0.25 µg/mL (≈ 0.599 µM) | 1 µg/mL (≈ 2.4 µM) | CCCCc1cc(C#N)c(NCC(O)(Cn2cncn2)c2ccc(F)cc2F)s1 (racemic) [Compound 2-03] | – |
| 4 µg/mL (≈ 9.58 µM) | > 4 µg/mL | 0.5 µg/mL (≈ 1.2 µM) | 0.06 µg/mL (≈ 0.144 µM) | > 4 µg/mL | 0.06 µg/mL (≈ 0.144 µM) | 0.06 µg/mL (≈ 0.144 µM) | > 4 µg/mL | 0.06 µg/mL (≈ 0.144 µM) | 0.12 µg/mL (≈ 0.287 µM) | 0.5 µg/mL (≈ 1.2 µM) | CCCCc1cc(C#N)c(NC[C@](O)(Cn2cncn2)c2ccc(F)cc2F)s1 [Compound 1a-03, (S)-5-Butyl-2-((2-(2,4-difluorophenyl)-2-hydroxy-3-(1H-1,2,4-triazol-1-yl)propyl)amino)thiophene-3-carbonitrile] | – |
| 4 µg/mL (≈ 9.27 µM) | > 8 µg/mL | 1 µg/mL (≈ 2.32 µM) | 0.12 µg/mL (≈ 0.278 µM) | > 8 µg/mL | 0.25 µg/mL (≈ 0.579 µM) | 0.12 µg/mL (≈ 0.278 µM) | > 8 µg/mL | 0.5 µg/mL (≈ 1.16 µM) | 0.5 µg/mL (≈ 1.16 µM) | 1 µg/mL (≈ 2.32 µM) | CCCCCc1cc(C#N)c(NC[C@](O)(Cn2cncn2)c2ccc(F)cc2F)s1 [Compound 1a-04, (S)-2-((2-(2,4-Difluorophenyl)-2-hydroxy-3-(1H-1,2,4-triazol-1-yl)propyl)amino)-5-pentylthiophene-3-carbonitrile] | – |
| > 8 µg/mL | > 8 µg/mL | 8 µg/mL (≈ 19.8 µM) | 0.5 µg/mL (≈ 1.24 µM) | > 128 µg/mL | 0.5 µg/mL (≈ 1.24 µM) | 0.5 µg/mL (≈ 1.24 µM) | 8 µg/mL (≈ 19.8 µM) | 1 µg/mL (≈ 2.48 µM) | 1 µg/mL (≈ 2.48 µM) | > 8 µg/mL | CCCc1cc(C#N)c(NC[C@@](O)(Cn2cncn2)c2ccc(F)cc2F)s1 [Compound 1b-02, (R)-2-((2-(2,4-Difluorophenyl)-2-hydroxy-3-(1H-1,2,4-triazol-1-yl)propyl)amino)-5-propylthiophene-3-carbonitrile] | – |
| 64 µg/mL (≈ 170 µM) | > 64 µg/mL | 4 µg/mL (≈ 10.7 µM) | 0.25 µg/mL (≈ 0.666 µM) | > 64 µg/mL | 0.5 µg/mL (≈ 1.33 µM) | 0.25 µg/mL (≈ 0.666 µM) | > 64 µg/mL | 0.5 µg/mL (≈ 1.33 µM) | 0.5 µg/mL (≈ 1.33 µM) | 4 µg/mL (≈ 10.7 µM) | Cc1cc(C#N)c(NCC(O)(Cn2cncn2)c2ccc(F)cc2F)s1 (racemic) [Compound 2-01] | – |
| 8 µg/mL (≈ 19.8 µM) | 4 µg/mL (≈ 9.91 µM) | 1 µg/mL (≈ 2.48 µM) | 0.12 µg/mL (≈ 0.297 µM) | > 16 µg/mL | 0.12 µg/mL (≈ 0.297 µM) | 0.06 µg/mL (≈ 0.149 µM) | > 16 µg/mL | 0.12 µg/mL (≈ 0.297 µM) | 0.12 µg/mL (≈ 0.297 µM) | 2 µg/mL (≈ 4.96 µM) | CCCc1cc(C#N)c(NCC(O)(Cn2cncn2)c2ccc(F)cc2F)s1 (racemic) [Compound 2-02] | – |
| 8 µg/mL (≈ 19.8 µM) | 8 µg/mL (≈ 19.8 µM) | 0.5 µg/mL (≈ 1.24 µM) | 0.12 µg/mL (≈ 0.297 µM) | > 16 µg/mL | 0.06 µg/mL (≈ 0.149 µM) | 0.06 µg/mL (≈ 0.149 µM) | > 16 µg/mL | 0.12 µg/mL (≈ 0.297 µM) | 0.12 µg/mL (≈ 0.297 µM) | 2 µg/mL (≈ 4.96 µM) | CCCc1cc(C#N)c(NC[C@](O)(Cn2cncn2)c2ccc(F)cc2F)s1 [Compound 1a-02, (S)-2-((2-(2,4-Difluorophenyl)-2-hydroxy-3-(1H-1,2,4-triazol-1-yl)propyl)amino)-5-propylthiophene-3-carbonitrile] | – |
| – | – | – | – | – | – | – | – | – | – | – | C[C@@H]1[C@H](O)[C@@H](C)/C=C/C=C/C=C/C=C/C=C/C=C/C=C/[C@H](O[C@@H]2O[C@H](C)[C@@H](O)[C@H](N)[C@@H]2O)C[C@@H]2O[C@](O)(C[C@@H](O)C[C@@H](O)[C@H](O)CC[C@@H](O)C[C@@H](O)CC(=O)O[C@H]1C)C[C@H](O)[C@H]2C(=O)O [AMB, Amphotericin-B] | MIC50 (Amphotericin B: MIC, complete inhibition) ([1]; C. krusei ATCC 6258, 48 hours, concentration exhibiting complete inhibition): 0.5 µg/mL (≈ 0.541 µM); MIC50 (Amphotericin B: MIC, complete inhibition) ([2]; A. niger ATCC 16404, 48 hours, concentration exhibiting complete inhibition): 0.25 µg/mL (≈ 0.271 µM); MIC50 (Amphotericin B: MIC, complete inhibition) ([3]; C. neoformans ATCC 34664, 48 hours, concentration exhibiting complete inhibition): 0.5 µg/mL (≈ 0.541 µM); MIC50 (Amphotericin B: MIC, complete inhibition) ([4]; C. glabrata ATCC 90030, 48 hours, concentration exhibiting complete inhibition): 0.25 µg/mL (≈ 0.271 µM); MIC50 (Amphotericin B: MIC, complete inhibition) ([5]; F. proliferatum ATCC 10052, 48 hours, concentration exhibiting complete inhibition): 2 µg/mL (≈ 2.16 µM); MIC50 (Amphotericin B: MIC, complete inhibition) ([6]; C. albicans ATCC 90028, 48 hours, concentration exhibiting complete inhibition): 0.5 µg/mL (≈ 0.541 µM); MIC50 (Amphotericin B: MIC, complete inhibition) ([7]; C. albicans ATCC 24433, 48 hours, concentration exhibiting complete inhibition): 0.25 µg/mL (≈ 0.271 µM); MIC50 (Amphotericin B: MIC, complete inhibition) ([8]; A. fumigatus ATCC 46645, 48 hours, concentration exhibiting complete inhibition): 0.5 µg/mL (≈ 0.541 µM); MIC50 (Amphotericin B: MIC, complete inhibition) ([9]; C. albicans ATCC 10231, 48 hours, concentration exhibiting complete inhibition): 0.5 µg/mL (≈ 0.541 µM); MIC50 (Amphotericin B: MIC, complete inhibition) ([10]; C. albicans ATCC 2091, 48 hours, concentration exhibiting complete inhibition): 0.5 µg/mL (≈ 0.541 µM); MIC50 (Amphotericin B: MIC, complete inhibition) ([11]; C. tropicalis ATCC 750, 48 hours, concentration exhibiting complete inhibition): 0.5 µg/mL (≈ 0.541 µM) |
